“Also recorded” adds a separate entry of the source. Like-named read-outs stand apart in the source and are kept apart here.
Legend:
HepG2/C3A [1] = assay: Human Serum Albumin quantification (ELISA), liver fraction of 4-organ system; assay type: cell-based; conditions: 4-organ co-culture under flow, 48 h drug treatment, vs control; DOX 5 μM, ATR 100 μM, VPA 2 mM, APAP 5 mM, AMAP 5 mM
Protocol: Human Serum Albumin (HSA) production from the liver fraction was tracked throughout the co-culture, by measuring the HSA concentration in the supernatant of the culture as it represents liver protein anabolism. Samples were collected from the exchanged medium (1.2 mL) and stored at −20 °C until analysis. One freeze-thaw cycle occurred before samples were analyzed following manufacturers’ instructions provided in the ELISA Starter Accessory Kit (Bethyl Laboratories Inc, Cat #: E101). Samples were diluted as necessary in sample conjugate/diluent buffer to ensure readings measured within the range of the standard curve. The standard curve was prepared by serial dilutions of human reference serum in sample conjugate/diluent buffer (0–1600 ng/ml).
Final HSA concentrations were calculated in an excel file by first removing the average OD reading measured for blanks from average sample and standard OD readings. Concentrations of standard dilutions were plotted against average OD values measured in XY scatter plots. A standard curve was created by adding an order of 2 polynomial trendline to XY scatter plots and selecting the option to display the equation of the trendline, as well as the R^2 value, on each scatter plot (for ease of analysis HSA sigmoidal curves were split into 3 standard curves with HSA concentration ranges of 0–200 ng/ml, 200–800 ng/ml and […]). Quadratic equations were rearranged to make X (sample HSA concentration) the unknown variant. Y values (OD values) and a/b/c constants generated from trendline equations were inputted into rearranged quadratic equations per assay. HSA concentrations calculated were corrected accordingly for any differences in culture final volumes, sample dilutions during assays and cells number.

Neurons [2] = system: Neurons; design: method as in Literature; conditions: general toxic effects reported in the literature; ref Literature; cited from earlier work
Human Skeletal Myofibers [3] = assay: Myotube stimulated contraction (binary: contracting or not); assay type: cell-based; conditions: 4-organ co-culture under flow, 48 h drug treatment, day 7, broad-field electrical stimulation, DOX 5 μM, ATR 100 μM, VPA 2 mM, APAP 5 mM, AMAP 5 mM
Protocol: Myotube contraction in coverslips was evaluated after the co-culture was finalized. Individual surfaces were evaluated as previously reported in the group. Drugs effects were quantify in a binary code mode, cells were or were not contracting.

Liver = system: Liver; design: method as in Literature; conditions: general toxic effects reported in the literature; ref Literature; cited from earlier work
Muscle = system: Muscle; design: method as in Literature; conditions: general toxic effects reported in the literature; ref Literature; cited from earlier work
neurons [4] = assay: Neuronal viability by morphological analysis and cell count in 4-organ system; conditions: 4-organ co-culture under flow, serum-free medium, 48 h drug treatment, day 7, vs control; DOX 5 μM, ATR 100 μM, VPA 2 mM, APAP 5 mM, AMAP 5 mM
Text: (§1) The four organ in vitro systems were assembled, on day 0, by placing the corresponding surfaces cell side up in a specific chamber of the housing (liver coverslip into chamber 1, cardiac coverslips and cantilevers into chambers 2 and 4, muscle coverslips into chamber 5, and neuron coverslips into chamber 3 and they were then topped with the serum-free co-culture medium (1X Neurobasal Medium, 1X B27, 1X AB/AM, 1X Glutamax (all from Life Technologies)) before locking the system. Right after assembling, the medium was completely replaced with 4 mL of the co-culture defined serum-free medium and the systems placed on a rocking platform inside an incubator. Platforms were checked every day by inspecting for expected cell morphology inside the system and by replacing medium (1.2 mL total volume) from the two reservoirs (30% of the total volume was replaced) with fresh medium. Drug incubation was initiated on day 5 of the co-culture by addition of the drug through the reservoir closer to the liver chamber (no. 1), allowing a first contact of the drug with the liver. 20 μL of the drug stock solution (or vehicle) to achieve a working concentration in 4 mL of total volume in the platform was utilized. On day 6, after 24 hours of drug incubation, 6 μL of the drug stock solution (or vehicle) was added to the fresh medium exchange volume (1.2 mL). After 48 hour of drug incubation, on day 7, systems were disassembled to test organ functionality that same day. For mono-culture conditions, surfaces remained in a 12-well plated with 1 mL of the co-culture defined serum-free medium maintained by daily replacement of half volume.
(§2) Seven days after the initiation of the co-culture, viability of each organ chamber, except for neurons, was evaluated through an MTT assay. […] Cell viability was measured at 570 nm in a Synergy HT plate reader and KC4 software. The results were expressed as the percentage of cell survival relative to the control (untreated or incubated with vehicle). The neuronal fraction viability was evaluated through morphological analysis throughout the co-culture experiment as the final coverslips were used for patch-clamp electrophysiology. Phase images (10X) where obtained every day of the co-culture. Neuronal viability was evaluated by cell morphology integrity and by cell count from day 1 to day 14.

neurons [5] = assay: Neuron electrophysiology recording (patch clamp); assay type: cell-based, human; conditions: 4-organ co-culture under flow, 48 h drug treatment, day 7, vs control, DOX 5 μM, ATR 100 μM, APAP 5 mM
Text: Electrophysiological properties of neuron cultures where recorded on the last day of co-culture following a previously described method. Values of firing, repetitive firing, spontaneous firing, inward sodium current, outward potassium current, action potential peak voltage and the resting membrane potential, characterized the mature functionality of neurons in the in vitro system. Drug alterations of the neuronal electrophysiology are discussed in this manuscript.

[6] = system: iPSc differentiated Cardiomyocytes; assay: MTT viability of cardiac module in 4-organ system; conditions: 4-organ co-culture under flow, serum-free medium, 48 h drug treatment, day 7, vs control, DOX 5 μM, ATR 100 μM, VPA 2 mM, APAP 5 mM, AMAP 5 mM
Text: as §1, §2

[7] = system: iPSc differentiated Cardiomyocytes; assay: Cardiac beating frequency from video recordings; assay type: cell-based, human; conditions: 4-organ co-culture under flow, 48 h drug treatment, day 7, vs control; ATR 100 μM, VPA 2 mM, APAP 5 mM
Protocol: Seven or fourteen days after the co-culture, cardiac beating frequency was quantified from video recordings of three different areas of each of the cMEA surfaces, where the cardiomyocytes culture where located. Surfaces were located in a 37 °C bath platform containing co-culture medium with 50 mM HEPES on the stage of a Zeiss Axioscope 2FS upright microscope. Beats were counted in a period of 10 s, and the average number of 3 values was obtained. Drug effect was plotted as percentage of change compared to the control conditions.

HepG2 = system: HepG2; design: method as in PMID 19107278; conditions: microfluidic system, double the concentration of APAP of this manuscript; cited from earlier work
Human Skeletal Myofibers [8] = assay: MTT viability of skeletal muscle module in 4-organ system; conditions: 4-organ co-culture under flow, serum-free medium, 48 h drug treatment, day 7, vs control, DOX 5 μM, ATR 100 μM, VPA 2 mM, APAP 5 mM, AMAP 5 mM
Text: as §1, §2

Cardiomyocytes = system: Cardiomyocytes; design: method as in Literature; conditions: general toxic effects reported in the literature; ref Literature; cited from earlier work
HepG2/C3A [9] = assay: Urea quantification, liver fraction of 4-organ system; assay type: cell-based, human; conditions: 4-organ co-culture under flow, 48 h drug treatment, vs control; DOX 5 μM, ATR 100 μM, APAP 5 mM, AMAP 5 mM
[10] = cited from earlier work; for Toxic plasma concentration: humans

CC(=O)Nc1ccc(O)cc1 [Acetaminophen]
HSA (albumin) production, increase (HepG2/C3A [1]): not affected
Drug effects on cell functionality, Neurons, Literature (Neurons [2]): Toxicity not reported
Drug effects on cell viability, Neurons, Literature (Neurons [2]): Toxicity not reported
Skeletal muscle loss of contractile ability (share of cultures in which contraction ceased) (Human Skeletal Myofibers [3]): 37% loss of contractile ability
Skeletal muscle loss of contractile ability (share of cultures in which contraction ceased) (Human Skeletal Myofibers [3]; listed as APAP): 37%
Drug effects on cell functionality, Liver, Literature (Liver): Compromised
Drug effects on cell viability, Liver, Literature (Liver): Toxicity reported
Drug effects on cell functionality, Muscle, Literature (Muscle): Myo-protective effect
Drug effects on cell viability, Muscle, Literature (Muscle): Myo-protective effect
Neuronal cell viability, loss (cell loss by morphology/cell count) (neurons [4]): 50 ± 18% loss of cell viability
Neuronal ion currents and firing of stimulated action potentials (neurons [5]): no changes
Neuronal repetitive and spontaneous firing ability (neurons [5]; AMAP 5 mM): loss and lost
Neuronal electrophysiology, overall effect (neurons [5]; VPA 2 mM, AMAP 5 mM): Electrophysiology affected
Cardiomyocyte viability, loss [6]: Toxicity not observed
Cardiomyocyte viability, loss ([6]; listed as APAP): not significantly affected; also recorded: preserved (even improved)
Cardiomyocyte beating rate (beat frequency), increase [7]: 27 ± 9% increase in beating frequency
Reduction in HepG2 viability (HepG2): 60%
Skeletal muscle viability, loss (Human Skeletal Myofibers [8]): Toxicity not observed
Skeletal muscle viability, loss (Human Skeletal Myofibers [8]; listed as APAP): not significantly affected
Drug effects on cell functionality, Cardiomyocytes, Literature (Cardiomyocytes): Cardio-protective effect
Drug effects on cell viability, Cardiomyocytes, Literature (Cardiomyocytes): Cardio-protective effect
Urea production, increase (HepG2/C3A [9]): 52 ± 13%
Therapeutic, and safe, plasma concentration ([10]; 500–1000 mg orally three times a day): low micromolar range
Toxic plasma concentration ([10]; after 24 hours): less than 50 μM
Toxic plasma concentration ([10]; first two hours after ingestion): around 2 mM

From paper PMC4738272 (Scientific Reports, 2016)
